According to patent US9096889B2, “Compositions and methods for monitoring transmembrane trafficking” (Promega Corporation, priority 2011, dated 2015):

What was measured:
[1] = target: beta2-adrenergic receptor (B2AR) fused to firefly luciferase (luc2) (UniProt P07550+P08659, E27Q/G16R/N119G/N50D); conditions: HEK293 cells, serially diluted agonist 30 minutes, trypsin/EDTA, D-luciferin without Mg/ATP, FIG. 2F
[2] = system: AT1R/FFluc fusion; assay: AT1R/FFluc fusion endocytosis assay (reduction of luciferase signal); format: cell-based; conditions: varying concentrations, 15 minutes stimulation, FIG. 8
Method: For FFluc-V2R and FFluc-AT1R, plasmid DNA was transfected at 5 ng/well and 0.16 ng/well respectively. For transfection into HeLa cells, plasmid DNA was diluted 1:10 into carrier DNA yielding 5 ng/well plasmid DNA. […] 50 μL per well of luciferase substrate, D-luciferin, was then added to a final concentration of 0.2 mM D-luciferin, 2 mM MgCl2, and 2 mM ATP, and the cells incubated for 30 minutes at 37° C. For AT1R and V2R, 0.02 mM D-luciferin was used. For the luc2-B2AR experiment, 0.01 mM D-luciferin was used. For the FFLuc experiment using the D-luciferin derivative, PBI-3102, 0.02 mM substrate was used. Immediately prior to stimulation, luminescence was measured on a GLOMAX Multi Plus plate reader set to 0.5 s of integration time. Cells were then stimulated with the agonist indicated below ( 1/10 volume addition), and luminescence measured every two minutes in real-time. […] As controls, cells were treated with vehicle (Opti-MEM containing either DMSO or water). Normalized luminescence was determined by dividing the luminescence value (RLUs) of each sample by the luminescence from the same sample prior to stimulation (SEE FIG. 1A-D).
Cells were transfected with plasmid DNA encoding AT1R/FFluc fusion. […] Immediately prior to stimulation, luminescence was measured. Cells were then stimulated with varying concentrations of TRV120027 for 15 minutes, and luminescence detected. […]

Chain of beta2-adrenergic receptor (B2AR) fused to firefly luciferase (luc2) (P08659+P07550 fused P08659:N50D/P08659:N119G/P07550:G16R/P07550:E27Q): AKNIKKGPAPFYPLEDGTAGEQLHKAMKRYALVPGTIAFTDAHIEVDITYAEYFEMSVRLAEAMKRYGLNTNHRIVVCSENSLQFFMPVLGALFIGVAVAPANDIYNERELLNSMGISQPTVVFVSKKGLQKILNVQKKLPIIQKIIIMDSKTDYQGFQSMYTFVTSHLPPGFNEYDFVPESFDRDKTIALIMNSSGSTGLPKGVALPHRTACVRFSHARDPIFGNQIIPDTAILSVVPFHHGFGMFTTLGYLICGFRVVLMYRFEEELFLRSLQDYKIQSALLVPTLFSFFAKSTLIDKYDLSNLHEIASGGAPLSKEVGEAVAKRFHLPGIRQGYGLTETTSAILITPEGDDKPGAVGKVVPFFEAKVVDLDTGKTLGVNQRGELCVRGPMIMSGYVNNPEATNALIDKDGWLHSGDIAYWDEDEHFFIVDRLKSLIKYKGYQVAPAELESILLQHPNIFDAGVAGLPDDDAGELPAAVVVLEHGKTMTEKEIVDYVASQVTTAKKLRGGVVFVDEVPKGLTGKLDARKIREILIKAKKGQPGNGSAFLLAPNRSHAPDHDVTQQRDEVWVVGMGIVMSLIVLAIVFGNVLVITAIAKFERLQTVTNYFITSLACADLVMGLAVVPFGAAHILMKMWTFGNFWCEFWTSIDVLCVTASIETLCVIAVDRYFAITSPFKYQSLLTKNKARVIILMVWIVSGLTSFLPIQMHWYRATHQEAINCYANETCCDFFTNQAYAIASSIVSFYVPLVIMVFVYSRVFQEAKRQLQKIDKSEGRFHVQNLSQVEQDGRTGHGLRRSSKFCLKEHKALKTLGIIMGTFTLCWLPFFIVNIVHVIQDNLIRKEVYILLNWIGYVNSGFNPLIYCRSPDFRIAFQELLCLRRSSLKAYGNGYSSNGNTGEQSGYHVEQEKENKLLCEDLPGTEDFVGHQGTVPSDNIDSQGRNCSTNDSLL

| Structure (SMILES) | raw luminescence signal (endocytosis, gain of signal), negative control (B2AR) fusion proteins [1] | internalization of AT1R/FFluc fusion proteins (normalized luminescence) [2] |
| --- | --- | --- |
| NC(=O)CC[C@@H]1NC(=O)[C@H](Cc2ccccc2)NC(=O)[C@H](Cc2ccc(O)cc2)NC(=O)[C@@H](N)CSSC[C@@H](C(=O)N2CCC[C@H]2C(=O)N[C@@H](CCCN=C(N)N)C(=O)NCC(N)=O)NC(=O)[C@H](CC(N)=O)NC1=O [arginine vasopressin] | no increase |  |
| CC[C@H](C)[C@H](NC(=O)[C@H](Cc1ccc(O)cc1)NC(=O)[C@@H](NC(=O)[C@H](CCCNC(=N)N)NC(=O)CNC)C(C)C)C(=O)N[C@@H](Cc1cnc[nH]1)C(=O)N1CCC[C@H]1C(=O)N[C@H](C)C(=O)O [TRV120027] |  | detected internalization |
